Assay results published in patent publication US20070004791A1, “3,6-disubstituted azabicyclo {3.1.0} hexane derivatives useful as muscarnic receptor antagonists” (priority 2002, published 2007).
Structures can show the parent of a compound that is named as a salt.

How the values were obtained:
M2 muscarinic receptor = biological target: T1, M2 muscarinic receptor (Rattus norvegicus, UniProt P10980); experiment: biochemical; assay type: binding; details: for Ki: Receptor Binding Assay M2 pKi
T1 construct: Submandibular glands and heart were isolated and placed in ice cold homogenising buffer; from tissue; host or cells: rat heart membrane homogenate
T1 sequence (P10980 1-466): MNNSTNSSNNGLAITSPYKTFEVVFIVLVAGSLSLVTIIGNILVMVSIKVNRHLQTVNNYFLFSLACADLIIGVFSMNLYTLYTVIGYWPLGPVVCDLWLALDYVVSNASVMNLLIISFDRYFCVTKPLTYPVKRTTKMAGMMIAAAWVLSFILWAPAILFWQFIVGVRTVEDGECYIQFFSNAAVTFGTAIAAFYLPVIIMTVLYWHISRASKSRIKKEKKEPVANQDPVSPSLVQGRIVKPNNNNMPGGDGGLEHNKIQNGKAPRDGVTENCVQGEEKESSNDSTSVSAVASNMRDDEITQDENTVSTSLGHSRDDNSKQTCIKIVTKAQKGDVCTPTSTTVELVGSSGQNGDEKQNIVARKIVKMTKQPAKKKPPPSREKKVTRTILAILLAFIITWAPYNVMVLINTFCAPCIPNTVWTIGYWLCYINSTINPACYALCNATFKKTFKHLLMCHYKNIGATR

M3 muscarinic receptor [1] = biological target: T2, M3 muscarinic receptor (Rattus norvegicus, UniProt P08483); experiment: biochemical; details: Receptor Binding Assay M3 pKi
M3 muscarinic receptor [2] = biological target: T2, M3 muscarinic receptor

T2 sequence (P08483 whole entry): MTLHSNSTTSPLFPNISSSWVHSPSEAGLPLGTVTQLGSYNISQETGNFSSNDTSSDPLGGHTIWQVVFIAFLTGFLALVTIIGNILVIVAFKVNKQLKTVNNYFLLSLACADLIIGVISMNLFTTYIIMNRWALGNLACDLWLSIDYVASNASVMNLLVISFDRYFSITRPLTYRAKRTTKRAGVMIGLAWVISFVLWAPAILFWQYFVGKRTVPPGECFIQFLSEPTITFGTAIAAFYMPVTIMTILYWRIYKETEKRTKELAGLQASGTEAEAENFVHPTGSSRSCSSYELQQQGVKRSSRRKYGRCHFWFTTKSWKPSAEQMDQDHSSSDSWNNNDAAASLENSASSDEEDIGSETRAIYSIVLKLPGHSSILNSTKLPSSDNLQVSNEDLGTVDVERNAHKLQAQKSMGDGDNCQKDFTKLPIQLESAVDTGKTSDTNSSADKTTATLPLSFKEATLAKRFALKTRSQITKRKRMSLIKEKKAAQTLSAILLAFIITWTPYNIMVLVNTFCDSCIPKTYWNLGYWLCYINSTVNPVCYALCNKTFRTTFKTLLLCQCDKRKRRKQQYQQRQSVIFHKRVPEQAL

Molecule	Ki (M2 muscarinic receptor)	Ki (M3 muscarinic receptor [1])	Receptor Binding Assay M3 pKi (M3 muscarinic receptor [2])	Receptor Binding Assay Selectivity M2/M3 (M3 muscarinic receptor [2])	Receptor Binding Assay M2 pKi (M2 muscarinic receptor)
O=C(NC[C@@H]1[C@H]2CN(Cc3cccnc3)C[C@@H]12)C(O)(c1ccccc1)c1ccccc1 [Compound No. 49, (1α,5α,6α)-N-[3-(3-pyridylmethyl)-3-azabicyclo[3.1.0]hexyl-6-(aminomethyl)-yl]-2-hydroxy-2,2-diphenylacetamide]	> 1000 nM	69.2 nM	–	–	–
O=C(NC[C@@H]1[C@H]2CN(Cc3ccncc3)C[C@@H]12)C(O)(c1ccccc1)C1CCCC1 (stereo partly drawn) [Compound No. 48, (1α,5α,6α)-N-[3-(4-pyridylmethyl)-3-azabicyclo[3.1.0]hexyl-6-(aminomethyl)-yl]-2-hydroxy-2-cyclopentyl-2-phenylacetamide]	> 1000 nM	72.4 nM	–	–	–
O=C(NCC1C2CN(Cc3ccccc3)CC12)C(O)(c1ccccc1)C1CCCC1 (stereo not drawn) [Compound No. 60, (1α,5α,6α)-N-[3-benzyl-3-azabicyclo[3.1.0]-hexyl-6-(aminomethyl)-yl]-2-hydroxy-2-cyclopentyl-2-phenyl acetamide hydrochloride salt]	49 nM	5.25 nM	–	–	–
(1α,5α,6α)-N-[3-(2-(3,4-methylenedioxyphenyl)ethyl)-3-azabicyclo[3.1.0]hexyl-6-(aminomethyl)-yl]-2-hydroxy-2-cyclopentyl-2-phenyl acetamide [Compound No. 13]	–	–	7.28	6.3	6.48
O=C(NC[C@@H]1[C@H]2CN(Cc3cccnc3)C[C@@H]12)C(O)(c1ccccc1)C1CCCCC1 (stereo partly drawn) [Compound No. 45, (1α,5α,6α)-N-[3-(3-pyridylmethyl)-3-azabicyclo[3.1.0]hexyl-6-(aminomethyl)-yl]-2-hydroxy-2-cyclohexyl-2-phenyl acetamide]	> 1000 nM	234 nM	–	–	–
O=C(NC[C@@H]1[C@H]2CN(Cc3ccncc3)C[C@@H]12)C(O)(c1ccccc1)c1ccccc1 [Compound No. 50, (1α,5α,6α)-N-[3-(4-pyridylmethyl)-3-azabicyclo[3.1.0]hexyl-6-(aminomethyl)-yl]-2-hydroxy-2,2-diphenyl acetamide]	> 1000 nM	115 nM	–	–	–
O=C(NC[C@@H]1[C@H]2CN(Cc3ccccc3)C[C@@H]12)C(O)(c1ccccc1)C1CCCC1 (stereo partly drawn) [Compound No. 62, (1α,5α,6α)-N-[3-benzyl-3-azabicyclo[3.1.0]-hexyl-6-(aminomethyl)-yl]-2-hydroxy-2-cyclopentyl-2-phenyl acetamide. Maleate salt]	52.5 nM	6.76 nM	–	–	–
O=C(NCC1C2CN(Cc3ccncc3)CC12)C(O)(c1ccccc1)C1CCCCC1 (stereo not drawn) [Compound No. 46, (1α,5α,6α)-N-[3-(4pyridylmethyl)-3-azabicyclo[3.1.0]hexyl-6-(aminomethyl)-yl]-2-hydroxy-2-cyclohexyl-2-phenylacetamide]	> 1000 nM	67.6 nM	–	–	–
(1α,5α,6α)-N-[3-(2-pyridylmethyl)-3-azabicyclo[3.1.0]hexyl-6-(aminomethyl)-yl]-2-hydroxy-2-cyclopentyl-2-phenylacetamide [Compound No. 47]	–	–	7.42	–	6.15
(1α,5α,6α)-N-[3-(2-(3,4-methylenedioxyphenyl)ethyl)-3-azabicyclo[3.1.0]hexyl-6-(aminomethyl)-yl]-2-hydroxy-2-cyclohexyl-2-phenyl acetamide [Compound No. 14]	–	–	6.72	10.5	5.7
O=C(NCC1C2CN(Cc3ccccc3)CC12)C(O)(c1ccccc1)C1CCCC1 (stereo not drawn) [Compound No. 61, (1α,5α,6α)-N-[3-benzyl-3-azabicyclo[3.1.0]-hexyl-6-(aminomethyl)-yl]-2-hydroxy-2-cyclopentyl-2-phenyl acetamide. L(−) malic acid salt]	43.7 nM	5.13 nM	–	–	–
